Source: patent EP0120270A2, “Furyloxazolylacetic acid derivative, processes for preparing same and pharmaceutical composition” (Tanabe Seiyaku Co., Ltd., priority 1983, dated 1984)

Key:
male SD rats = experiment: Hypolipidemic activity (serum cholesterol and serum triglyceride in rats fed diet containing test compound); format: in vivo; settings: test compound 50 mg % in diet, ad libitum for one week, group of 5
Experimental: A test compound (50 mg %) was added to a commercial diet, and male SD rats (body weight: 120 - 140 g, a group of 5 rats) were fed with the diet ad libitum for one week. After the experimental period, blood was collected from the tail vein of the rats under ether anesthesia. Then, serum cholesterol and serum triglyceride were measured according to the methods of Zak (Amr. J. Clin, Pathol., Vol. 24, page 1307 (1954)) and Van Handel-Silversmit (J. Lab. & Clin. Med., Vol. 50, page 152 (1957)), respectively. Based on the results obtained above, the decrease (%) in serum cholesterol or triglyceride were calculated by the following formula: [formula]

platelet aggregation = experiment: Platelet aggregation-inhibiting activity (collagen-induced aggregation in platelet-rich plasma); format: cell-based, rats; settings: final concentration: 100 µg/ml, rat PRP, 37°C
Experimental: Blood was collected from the abdominal aorta of male SD rats (body weight: 250 - 300 g) which were anesthetized with ether. Nine volumes of said blood were mixed with one volume of an aqueous 3.8 % (w/v) trisodium citrate solution, and the mixture was centrifuged at 500 x g for 5 minutes to give platelet-rich plasma (hereinafter referred to as "PRP") as the supernatant solution. The bottom layer was further centrifuged at 1000 x g for 10 minutes to give platelet-poor plasma (hereinafter referred to as "PPP") as the supernatant solution. PRP was diluted with PPP so that the blood platelet count was 8 - 10 x 10 /mm . Then, a mixture of 200 µl of said diluted PRP and 25 µl of a test compound solution (final concentration: 100 µg/ml) was introduced into a glass cell of SIENCO aggregometer (Sienco Inc., Morrison, Colo. Model DP-247-D). After the mixture was stirred at 1100 rpm at 37°C for 2 minutes, 25 µl of a collagen solution (prepared by Holmsen's method described in Biochim. Biophys. Acta, Vol. 186, page 254(1969)) was added thereto, and the percentage inhibition of platelet aggregation was calculated in accordance with the following formula from the degree of the platelet aggregation which was estimated by Born's method (Nature, 194, page 927[…]). [formula]

| SMILES | Decrease (%) in serum choles-terol (male SD rats) | Decrease (%) in serum trigly-ceride (male SD rats) | inhibition at 100 µg/mL (platelet aggregation) |
| --- | --- | --- | --- |
| CCOC(=O)C(C)c1nc(-c2ccc(Cl)cc2)oc1-c1ccoc1 (stereo not shown) [Ethyl 2-[2-(4-chlorophenyl)-5-(3-furyl)-4-oxazolyl]-propionate] | 22% | 45% | ≥ 10% |
| CCOC(=O)C(C)c1nc(-c2ccc(Cl)cc2)oc1-c1ccco1 (stereo not shown) [Ethyl 2-[2-(4-chlorophenyl)-5-(2-furyl)-4-oxazolyl]-propionate] | 15% | 22% | ≥ 10% |
| CCOC(=O)C(C)(C)Oc1ccc(Cl)cc1 [Clofibrate, 2-(4-chlorophenoxy)-2-methylpropanoic acid ethyl ester, reference compound] | 15% | 16% | < 10% |
| CC(C)(C(=O)O)c1nc(-c2ccc(Cl)cc2)oc1-c1ccco1 [2-[2-(4-chlorophenyl)-5-(2-furyl)-4-oxazolyl]-2-methylpropionic acid] | 16% | 54% |  |
| CC(C(=O)O)c1nc(-c2ccc(Cl)cc2)oc1-c1ccco1 (stereo not shown) [2-[2-(4-chlorophenyl)-5-(2-furyl)-4-oxazolyl]-propionic acid] | 14% | 34% |  |
